The values that follow come from patent US20230372498A1, “PLK1 SELECTIVE DEGRADATION INDUCING COMPOUND” (UPPTHERA, priority 2020, published 2023).

Broadly, the DC50 is the midpoint of the concentration-degradation curve. In general, Dmax refers to the greatest extent of degradation seen.

SMILES strings stand for the structures.

The target in the experiment is T1, PLK1 (Homo sapiens, UniProt P53350).
T1 construct: endogenous in cells; host or cells: HeLa
The experiment can be described thus: PLK1 protein degradation in HeLa cells, Western blotting (PLK1/GAPDH ratio). The settings on record: for DC50 / Dmax: 6 hours compound incubation; for DC50: measured only if the grade of Dmax is A or B; for PLK1 protein degradability (western blot, FIG. 1 and 2): in comparison with Comparative Compounds; for Dmax: thymidine block and release, 10 points three-fold from 3 μM, PLK1 to GAPDH ratio, read-out: Dmax. It is filed as cell-based. An excerpt:
The HeLa cell line was purchased from Korea Cell Line Bank (KCLB), Seoul, Korea. The passage in cell culture was maintained at P115 to P125.
For cell culture, DMEM (Gibco, Cat. No. 1195-65; Lot. No. 2085318), FBS (Gibco, Cat. No. 16000-044; Lot. No. 2097593), Penicillin/Streptomycin (PS) (Gibco, Cat. No. 15140-122; Lot. No. 2058855), 100 mm^2 cell culture dish (SPL, Cat. No. 20100), 150 mm^2 cell culture dish (SPL, Cat. No. 20150), 12-well culture plate (SPL, Cat. No. 30012), PBS pH 7.4 (Gibco, Cat. No. 10010-023; Lot. No. 2085080), TrypLE™ Express (Gibco, Cat. No. 12605-010; Lot No. 2070638), Counting Chamber (Hematocytometer) (Hirschmann, Cat. No. 8100204), and 0.4% Trypan Blue Solution (DYNEBIO, Cat. No. CBT3710; Lot. No. 20190723) were used.
2×10^5 cells were seeded for each well of a 12-well plate (SPL), and the cells were cultured in the culture medium in a total volume of 2 ml.
The compounds of Examples were completely dissolved in DMSO and used in the experiment, and thymidine was completely dissolved in DW and used in the experiment. For thymidine block, the products were treated with 2 mM of thymidine (Sigma-Aldrich Cat. No. T9250-5G) and then incubated for 24 hours.
For release and chemical treatment, the medium was suctioned and washed 3 times with 1×PBS. Complete media was added, followed by incubation for 4 hours in a CO2 incubator. Each compound was diluted three folds from the highest concentration of 3 μM to the lowest concentration in 10 points and then incubated for 6 hours again.
For SDS-PAGE and Western blotting, 1×RIPA lysis buffer (Rockland, Cat. No. MB-030-0050; Lot no. 39751), 100× Protease Inhibitor Cocktail (Quartett, Cat. No. PPI1015; Lot no. PCO50038424), Pierce™ BCA protein assay kit (ThermoScientific, Cat. No. 23225; Lot no. UC276876), albumin standard (ThermoScientific, Cat. No. 23209; Lot no. UB269561), 4-15% Mini-PROTEAN TGX stain-free gel (Bio-rad, Cat. No. 4568085; Lot no. L007041B), 10× Tris/Glycine/SDS buffer (Bio-rad, Cat. No. 1610732; Lot no. 10000044375B); 10×TBS (Bio-rad, Cat. No. 1706435; Lot no. 1000045140B), 10% Tween 20 (Cat. No. 1610781; Lot no. L004152B), Color protein standard broad range (NEB, Cat. No. P7719S; Lot no. 10040349), 4× Laemmli sample buffer (Bio-rad, Cat. No. 1610747; Lot no. L004133B), β-mercaptoethanol (Sigma-Aldrich, Cat. No. M3148; Lot no. 60-24-2), SuperBlock™ T20 (TBS) blocking buffer (ThermoScientific, Cat. No. 37536; Lot no. UC282578), 1M sodium azide solution (Sigma-Aldrich, Cat. No. 08591-1 mL-F; Lot no. BCBV4989), α-Rabbit pAb to Ms IgG (abcam, Cat. No. ab97046; Lot no. GR3252115-1), α-Goat pAb to Rb IgG (CST, Cat. No. 7074S; Lot no. 28), α-GAPDH (abcam, Cat. No. ab8245; Lot no. GR3275542-2), α-Plk1 (CST, Cat. No. 208G4), α-BRD4 (CST, Cat. No. 13440S), ECL™ Prime western blotting reagents (GE Healthcare, Cat. No. RPN2232; Lot no. 17001655), Ponceau S solution (Sigma-Aldrich, Cat. No. P7170; Lot no. SLBV4112), Difco™ Skim milk (BD, Cat. No. 232100; Lot no. 8346795), and iBlot® 2 NC Regular stacks (Invitrogen, Cat. No. IB323001; Lot no. 2NR110619-02) were used.
For cell harvesting, the cells were first separated from the plate using trypsin and then washed with the medium and PBS. Specifically, the medium was suctioned off and washed with 1 mL of PBS, and PBS was suctioned off. The cells were treated with 0.5 mL TrypLE™ Express at 37° C. for 7 minutes to separate the cells, and then 0.5 mL of complete medium was added to collect 1 mL of cell culture solution. Then, 1 mL of the cell collection solution was centrifuged at 8,000 rpm for 120 seconds, and the supernatant was removed. After washing with 0.2 mL of PBS, the PBS was removed.
For cell lysis, a lysis buffer was added and cell debris was removed to obtain a cell lysate. Specifically, the cells were treated with 70 μL of 1×RIPA buffer containing a protease inhibitor and incubated for 30 minutes on ice. Then, the cells were centrifuged at 4° C. and 15,000 rpm for 10 minutes to obtain a cell lysate. […]

T1 sequence (P53350 whole entry): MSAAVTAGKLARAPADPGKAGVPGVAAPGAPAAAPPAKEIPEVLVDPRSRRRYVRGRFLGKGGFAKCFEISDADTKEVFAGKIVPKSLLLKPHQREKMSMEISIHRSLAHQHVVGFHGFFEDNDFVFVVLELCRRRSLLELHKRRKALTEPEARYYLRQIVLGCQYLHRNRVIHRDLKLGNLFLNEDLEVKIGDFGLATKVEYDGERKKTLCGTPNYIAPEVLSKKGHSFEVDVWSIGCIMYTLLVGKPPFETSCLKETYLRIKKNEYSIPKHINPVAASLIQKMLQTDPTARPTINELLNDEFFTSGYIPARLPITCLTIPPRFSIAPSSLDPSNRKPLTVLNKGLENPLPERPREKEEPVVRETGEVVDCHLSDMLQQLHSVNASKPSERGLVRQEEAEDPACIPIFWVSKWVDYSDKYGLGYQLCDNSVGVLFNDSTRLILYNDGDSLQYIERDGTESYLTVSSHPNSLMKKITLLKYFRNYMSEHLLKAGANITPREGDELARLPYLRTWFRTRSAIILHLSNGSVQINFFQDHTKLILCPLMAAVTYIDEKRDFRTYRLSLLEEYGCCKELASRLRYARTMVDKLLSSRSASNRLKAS

Consider `COc1cc(C(=O)NC2CCN(CCOCCNc3cccc4c3C(=O)N(C3CCC(=O)NC3=O)C4=O)CC2)c(F)cc1Nc1ncc2c(n1)N(C1CCCC1)CC(F)(F)C(=O)N2C` (stereo not shown) [Compound 1, 4-((9-cyclopentyl-7,7-difluoro-5-methyl-6-oxo-6,7,8,9-tetrahydro-5H-pyrimido[4,5-b][1,4]diazepin-2-yl)amino)-N-(1-(2-(2-((2-(2,6-dioxopiperidin-3-yl)-1,3-dioxoisoindolin-4-yl)amino)ethoxy)ethyl)piperidin-4-yl)-2-fluoro-5-methoxybenzamide], for which the DC50 was at most 50 nM; the “PLK1 protein degradability (western blot, FIG. 1 and 2)” value is “excellent PLK1 protein degradability”; the Dmax is at least 80%.

For the molecule `COc1cc(C(=O)NC2CCN(CCOCCOCCNc3cccc4c3C(=O)N(C3CCC(=O)NC3=O)C4=O)CC2)c(F)cc1Nc1ncc2c(n1)N(C1CCCC1)CC(F)(F)C(=O)N2C` (stereo not shown) [Compound 2, 4-((9-cyclopentyl-7,7-difluoro-5-methyl-6-oxo-6,7,8,9-tetrahydro-5H-pyrimido[4,5-b][1,4]diazepin-2-yl)amino)-N-(1-(2-(2-(2-((2-(2,6-dioxopiperidin-3-yl)-1,3-dioxoisoindolin-4-yl)amino)ethoxy)ethoxy)ethyl)piperidin-4-yl)-2-fluoro-5-methoxybenzamide], the DC50 is at most 50 nM; the “PLK1 protein degradability (western blot, FIG. 1 and 2)” value is “excellent PLK1 protein degradability”; the Dmax is at least 80%.

Regarding `COc1cc(C(=O)NC2CCN(CCOCCOCCOCCNc3cccc4c3C(=O)N(C3CCC(=O)NC3=O)C4=O)CC2)c(F)cc1Nc1ncc2c(n1)N(C1CCCC1)CC(F)(F)C(=O)N2C` (stereo not shown) [Compound 3, 4-((9-cyclopentyl-7,7-difluoro-5-methyl-6-oxo-6,7,8,9-tetrahydro-5H-pyrimido[4,5-b][1,4]diazepin-2-yl)amino)-N-(1-(2-(2-(2-(2-((2-(2,6-dioxopiperidin-3-yl)-1,3-dioxoisoindolin-4-yl)amino)ethoxy)ethoxy)ethoxy)ethyl)piperidin-4-yl)-2-fluoro-5-methoxybenzamide], the DC50 is at most 50 nM and the Dmax was at least 80%.

As to `COc1cc(C(=O)NC2CCN(CCOCCOCCOCCOCCNc3cccc4c3C(=O)N(C3CCC(=O)NC3=O)C4=O)CC2)c(F)cc1Nc1ncc2c(n1)N(C1CCCC1)CC(F)(F)C(=O)N2C` (stereo not shown) [Compound 4, 4-((9-cyclopentyl-7,7-difluoro-5-methyl-6-oxo-6,7,8,9-tetrahydro-5H-pyrimido[4,5-b][1,4]diazepin-2-yl)amino)-N-(1-(14-((2-(2,6-dioxopiperidin-3-yl)-1,3-dioxoisoindolin-4-yl)amino)-3,6,9,12-tetraoxatetradecyl)piperidin-4-yl)-2-fluoro-5-methoxybenzamide], the DC50 is at most 50 nM and the Dmax is at least 80%.

In the case of `COc1cc(C(=O)NC2CCN(CCOCCOCCOCCOCCOCCNc3cccc4c3C(=O)N(C3CCC(=O)NC3=O)C4=O)CC2)c(F)cc1Nc1ncc2c(n1)N(C1CCCC1)CC(F)(F)C(=O)N2C` (stereo not shown) [Compound 5, 4-((9-cyclopentyl-7,7-difluoro-5-methyl-6-oxo-6,7,8,9-tetrahydro-5H-pyrimido[4,5-b][1,4]diazepin-2-yl)amino)-N-(1-(17-((2-(2,6-dioxopiperidin-3-yl)-1,3-dioxoisoindolin-4-yl)amino)-3,6,9,12,15-pentaoxaheptadecyl)piperidin-4-yl)-2-fluoro-5-methoxybenzamide], the DC50 is at most 50 nM and the Dmax was at least 80%.

Turning to `COc1cc(C(=O)NC2CCN(CCOCCOCCNc3cccc4c3C(=O)N(C3CCC(=O)N(C)C3=O)C4=O)CC2)c(F)cc1Nc1ncc2c(n1)N(C1CCCC1)CC(F)(F)C(=O)N2C` (stereo not shown) [Compound 6, 4-((9-cyclopentyl-7,7-difluoro-5-methyl-6-oxo-6,7,8,9-tetrahydro-5H-pyrimido[4,5-b][1,4]diazepin-2-yl)amino)-2-fluoro-5-methoxy-N-(1-(2-(2-(2-((2-(1-methyl-2,6-dioxopiperidin-3-yl)-1,3-dioxoisoindolin-4-yl)amino)ethoxy)ethoxy)ethyl)piperidin-4-yl)benzamide], the Dmax was below 60%.

Turning to `COc1cc(C(=O)NC2CCN(CCOCCOCCOCCOCCNc3cccc4c3C(=O)N(C3CCC(=O)N(C)C3=O)C4=O)CC2)c(F)cc1Nc1ncc2c(n1)N(C1CCCC1)CC(F)(F)C(=O)N2C` (stereo not shown) [Compound 7, 4-((9-cyclopentyl-7,7-difluoro-5-methyl-6-oxo-6,7,8,9-tetrahydro-5H-pyrimido[4,5-b][1,4]diazepin-2-yl)amino)-2-fluoro-5-methoxy-N-(1-(14-((2-(1-methyl-2,6-dioxopiperidin-3-yl)-1,3-dioxoisoindolin-4-yl)amino)-3,6,9,12-tetraoxatetradecyl)piperidin-4-yl)benzamide], the Dmax was below 60%.

As for `COc1cc(C(=O)NC2CCN(CCCCNc3cccc4c3C(=O)N(C3CCC(=O)NC3=O)C4=O)CC2)c(F)cc1Nc1ncc2c(n1)N(C1CCCC1)CC(F)(F)C(=O)N2C` (stereo not shown) [Compound 8, 4-((9-cyclopentyl-7,7-difluoro-5-methyl-6-oxo-6,7,8,9-tetrahydro-5H-pyrimido[4,5-b][1,4]diazepin-2-yl)amino)-N-(1-(4-((2-(2,6-dioxopiperidin-3-yl)-1,3-dioxoisoindolin-4-yl)amino)butyl)piperidin-4-yl)-2-fluoro-5-methoxybenzamide], the Dmax is below 60%.

As for `COc1cc(C(=O)NC2CCN(CCCCCNc3cccc4c3C(=O)N(C3CCC(=O)NC3=O)C4=O)CC2)c(F)cc1Nc1ncc2c(n1)N(C1CCCC1)CC(F)(F)C(=O)N2C` (stereo not shown) [Compound 9, 4-((9-cyclopentyl-7,7-difluoro-5-methyl-6-oxo-6,7,8,9-tetrahydro-5H-pyrimido[4,5-b][1,4]diazepin-2-yl)amino)-N-(1-(5-((2-(2,6-dioxopiperidin-3-yl)-1,3-dioxoisoindolin-4-yl)amino)pentyl)piperidin-4-yl)-2-fluoro-5-methoxybenzamide], the DC50 is at most 500 nM and the maximal degradation (Dmax) was 60 to 80%.

Turning to `COc1cc(C(=O)NC2CCN(CCCCCCNc3cccc4c3C(=O)N(C3CCC(=O)NC3=O)C4=O)CC2)c(F)cc1Nc1ncc2c(n1)N(C1CCCC1)CC(F)(F)C(=O)N2C` (stereo not shown) [Compound 10, 4-((9-cyclopentyl-7,7-difluoro-5-methyl-6-oxo-6,7,8,9-tetrahydro-5H-pyrimido[4,5-b][1,4]diazepin-2-yl)amino)-N-(1-(6-((2-(2,6-dioxopiperidin-3-yl)-1,3-dioxoisoindolin-4-yl)amino)hexyl)piperidin-4-yl)-2-fluoro-5-methoxybenzamide], the half-maximal degradation concentration (DC50) was at most 500 nM and the Dmax was in the range of 60 to 80%.
